Measurements reported in the NIST ThermoML archive (doi:10.1021/je2000606).
Numbers after ± are expanded uncertainties.

Key:
[1] = refractive index (Na D-line) (dimensionless); conditions: 101.33 kPa, Liquid, Standard Abbe refractometry
[2] = 101.33 kPa, Liquid; for viscosity: Falling or rolling sphere viscometry; for mass density: Vibrating tube method
[3] = refractive index (Na D-line) (dimensionless); xn = mol fraction of the nth substance listed; conditions: 101 kPa, Liquid
[4] = xn = mol fraction of the nth substance listed; conditions: 101 kPa, Liquid

CCCCn1cc[n+](C)c1.C[C@H](N)C(=O)[O-] [3-butyl-1-methyl-1H-imidazolium L-alaninate]
Conditions | mass density, [2] [kg/m3] | refractive index, [1] | viscosity, [2] [mPa·s]
298.15 K | 1080.2 ± 1 | 1.5184 ± 0.0004 | 78.3 ± 1.4
303.15 K | 1076.5 ± 1 | 1.5168 ± 0.0004 | 59.77 ± 0.79
308.15 K | 1074.2 ± 1 | 1.5153 ± 0.0004 | 47.03 ± 0.63
313.15 K | 1071.1 ± 1 | 1.5135 ± 0.0004 | 37.95 ± 0.53

CO [methanol]
Conditions | mass density, [2] [kg/m3] | refractive index, [1] | viscosity, [2] [mPa·s]
298.15 K | 786.4 ± 1 | 1.3266 ± 0.0004 | 0.532 ± 0.2
303.15 K | 782.2 ± 1 | 1.3243 ± 0.0004 | 0.515 ± 0.2
308.15 K | 776.7 ± 1 | 1.3224 ± 0.0004 | 0.465 ± 0.2
313.15 K | 772.9 ± 1 | 1.3208 ± 0.0004 | 0.441 ± 0.2

CCCCn1cc[n+](C)c1.C[C@H](N)C(=O)[O-] [3-butyl-1-methyl-1H-imidazolium L-alaninate] + OCc1ccccc1
Conditions | mass density, [4] [kg/m3] | refractive index, [3] | viscosity, [4] [mPa·s]
298.15 K, x1 = 0.1012 | 1052.86 ± 1.1 | 1.5355 ± 0.0007 | 6.989 ± 0.45
298.15 K, x1 = 0.1939 | 1059.8 ± 1.1 | 1.534 ± 0.0007 | 8.647 ± 0.55
298.15 K, x1 = 0.3103 | 1066.02 ± 1.1 | 1.532 ± 0.0007 | 11.9 ± 0.75
298.15 K, x1 = 0.3971 | 1069.57 ± 1.1 | 1.5304 ± 0.0007 | 14.7 ± 0.93
298.15 K, x1 = 0.4864 | 1072.4 ± 1.1 | 1.5287 ± 0.0007 | 18.75 ± 1.2
298.15 K, x1 = 0.6015 | 1075.14 ± 1.1 | 1.5264 ± 0.0007 | 26.24 ± 1.7
298.15 K, x1 = 0.6945 | 1076.58 ± 1.1 | 1.5245 ± 0.0007 | 34.42 ± 2.2
298.15 K, x1 = 0.8015 | 1077.73 ± 1.1 | 1.5223 ± 0.0007 | 46.72 ± 2.9
298.15 K, x1 = 0.9026 | 1078.72 ± 1.1 | 1.5203 ± 0.0007 | 61.33 ± 3.4
303.15 K, x1 = 0.1012 | 1048.56 ± 1.1 | 1.5333 ± 0.0007 | 5.691 ± 0.38
303.15 K, x1 = 0.1939 | 1055.61 ± 1.1 | 1.5319 ± 0.0007 | 6.738 ± 0.44
303.15 K, x1 = 0.3103 | 1061.88 ± 1.1 | 1.53 ± 0.0007 | 9.274 ± 0.58
303.15 K, x1 = 0.3971 | 1065.49 ± 1.1 | 1.5285 ± 0.0007 | 11.46 ± 0.72
303.15 K, x1 = 0.4864 | 1068.42 ± 1.1 | 1.5268 ± 0.0007 | 14.62 ± 0.92
303.15 K, x1 = 0.6015 | 1071.16 ± 1.1 | 1.5246 ± 0.0007 | 20.5 ± 1.3
303.15 K, x1 = 0.6945 | 1072.71 ± 1.1 | 1.5227 ± 0.0007 | 26.62 ± 1.7
303.15 K, x1 = 0.8015 | 1073.95 ± 1.1 | 1.5206 ± 0.0007 | 35.94 ± 2.3
303.15 K, x1 = 0.9026 | 1074.98 ± 1.1 | 1.5186 ± 0.0007 | 46.96 ± 3
308.15 K, x1 = 0.1012 | 1045.09 ± 1.1 | 1.5308 ± 0.0007 | 4.951 ± 0.35
308.15 K, x1 = 0.1939 | 1052.25 ± 1.1 | 1.5295 ± 0.0007 | 5.953 ± 0.39
308.15 K, x1 = 0.3103 | 1058.75 ± 1.1 | 1.5277 ± 0.0007 | 7.695 ± 0.48
308.15 K, x1 = 0.3971 | 1062.51 ± 1.1 | 1.5263 ± 0.0007 | 9.977 ± 0.62
308.15 K, x1 = 0.4864 | 1065.53 ± 1.1 | 1.5247 ± 0.0007 | 12.61 ± 0.79
308.15 K, x1 = 0.6015 | 1068.43 ± 1.1 | 1.5226 ± 0.0007 | 17.36 ± 1.1
308.15 K, x1 = 0.6945 | 1070.11 ± 1.1 | 1.5209 ± 0.0007 | 22.13 ± 1.4
308.15 K, x1 = 0.8015 | 1071.46 ± 1.1 | 1.5189 ± 0.0007 | 29.01 ± 1.8
308.15 K, x1 = 0.9026 | 1072.58 ± 1.1 | 1.517 ± 0.0007 | 36.89 ± 2.3
313.15 K, x1 = 0.1012 | 1041.62 ± 1.1 | 1.5286 ± 0.0007 | 4.28 ± 0.32
313.15 K, x1 = 0.1939 | 1048.77 ± 1.1 | 1.5273 ± 0.0007 | 5.515 ± 0.37
313.15 K, x1 = 0.3103 | 1055.35 ± 1.1 | 1.5256 ± 0.0007 | 7.175 ± 0.46
313.15 K, x1 = 0.3971 | 1059.07 ± 1.1 | 1.5242 ± 0.0007 | 8.904 ± 0.56
313.15 K, x1 = 0.4864 | 1062.18 ± 1.1 | 1.5227 ± 0.0007 | 11.02 ± 0.69
313.15 K, x1 = 0.6015 | 1065.2 ± 1.1 | 1.5206 ± 0.0007 | 15.01 ± 0.94
313.15 K, x1 = 0.6945 | 1066.87 ± 1.1 | 1.5189 ± 0.0007 | 18.65 ± 1.2
313.15 K, x1 = 0.8015 | 1068.31 ± 1.1 | 1.517 ± 0.0007 | 24.47 ± 1.5
313.15 K, x1 = 0.9026 | 1069.52 ± 1.1 | 1.5152 ± 0.0007 | 30.69 ± 1.9

OCc1ccccc1 [benzenemethanol]
Conditions | mass density, [2] [kg/m3] | refractive index, [1] | viscosity, [2] [mPa·s]
298.15 K | 1041.64 ± 1 | 1.5371 ± 0.0004 | 5.55 ± 0.21
303.15 K | 1037.42 ± 1 | 1.5349 ± 0.0004 | 4.675 ± 0.21
308.15 K | 1033.84 ± 1 | 1.5323 ± 0.0004 | 4.01 ± 0.2
313.15 K | 1030.43 ± 1 | 1.5301 ± 0.0004 | 3.522 ± 0.2

CCCCn1cc[n+](C)c1.C[C@H](N)C(=O)[O-] [3-butyl-1-methyl-1H-imidazolium L-alaninate] + CO
Conditions | mass density, [4] [kg/m3] | refractive index, [3] | viscosity, [4] [mPa·s]
298.15 K, x1 = 0.0986 | 906.31 ± 1.1 | 1.3952 ± 0.0007 | 1.824 ± 0.29
298.15 K, x1 = 0.2015 | 968.55 ± 1.1 | 1.438 ± 0.0007 | 2.979 ± 0.39
298.15 K, x1 = 0.2837 | 998.11 ± 1.1 | 1.4595 ± 0.0007 | 4.892 ± 0.61
298.15 K, x1 = 0.3985 | 1024.98 ± 1.1 | 1.4787 ± 0.0007 | 8.963 ± 1.1
298.15 K, x1 = 0.5105 | 1042.62 ± 1.1 | 1.4914 ± 0.0007 | 15.2 ± 1.9
298.15 K, x1 = 0.6035 | 1053.47 ± 1.1 | 1.4994 ± 0.0007 | 22.23 ± 2.8
298.15 K, x1 = 0.7011 | 1062.38 ± 1.1 | 1.5058 ± 0.0007 | 31.13 ± 3.9
298.15 K, x1 = 0.8152 | 1070.44 ± 1.1 | 1.5111 ± 0.0007 | 45.03 ± 5.6
298.15 K, x1 = 0.9139 | 1076 ± 1.1 | 1.5147 ± 0.0007 | 60.33 ± 6.1
303.15 K, x1 = 0.0986 | 901.65 ± 1.1 | 1.3926 ± 0.0007 | 1.753 ± 0.28
303.15 K, x1 = 0.2015 | 963.93 ± 1.1 | 1.435 ± 0.0007 | 2.76 ± 0.37
303.15 K, x1 = 0.2837 | 993.59 ± 1.1 | 1.4564 ± 0.0007 | 3.714 ± 0.47
303.15 K, x1 = 0.3985 | 1020.56 ± 1.1 | 1.4755 ± 0.0007 | 6.403 ± 0.8
303.15 K, x1 = 0.5105 | 1038.31 ± 1.1 | 1.4883 ± 0.0007 | 10.73 ± 1.3
303.15 K, x1 = 0.6035 | 1049.27 ± 1.1 | 1.4964 ± 0.0007 | 16.01 ± 2
303.15 K, x1 = 0.7011 | 1058.3 ± 1.1 | 1.5029 ± 0.0007 | 22.63 ± 2.8
303.15 K, x1 = 0.8152 | 1066.5 ± 1.1 | 1.5087 ± 0.0007 | 32.91 ± 4.1
303.15 K, x1 = 0.9139 | 1072.2 ± 1.1 | 1.5126 ± 0.0007 | 45.02 ± 5.6
308.15 K, x1 = 0.0986 | 896.59 ± 1.1 | 1.3901 ± 0.0007 | 1.829 ± 0.29
308.15 K, x1 = 0.2015 | 959.34 ± 1.1 | 1.4323 ± 0.0007 | 2.349 ± 0.33
308.15 K, x1 = 0.2837 | 989.32 ± 1.1 | 1.4533 ± 0.0007 | 3.429 ± 0.44
308.15 K, x1 = 0.3985 | 1016.81 ± 1.1 | 1.4723 ± 0.0007 | 5.513 ± 0.68
308.15 K, x1 = 0.5105 | 1034.85 ± 1.1 | 1.485 ± 0.0007 | 9.168 ± 1.1
308.15 K, x1 = 0.6035 | 1046.07 ± 1.1 | 1.493 ± 0.0007 | 13.4 ± 1.7
308.15 K, x1 = 0.7011 | 1055.34 ± 1.1 | 1.5 ± 0.0007 | 18.29 ± 2.3
308.15 K, x1 = 0.8152 | 1063.85 ± 1.1 | 1.5059 ± 0.0007 | 26.27 ± 3.3
308.15 K, x1 = 0.9139 | 1069.71 ± 1.1 | 1.5105 ± 0.0007 | 35.3 ± 4.4
313.15 K, x1 = 0.0986 | 892.46 ± 1.1 | 1.3881 ± 0.0007 | 1.34 ± 0.25
313.15 K, x1 = 0.2015 | 955.28 ± 1.1 | 1.4297 ± 0.0007 | 2.113 ± 0.31
313.15 K, x1 = 0.2837 | 985.35 ± 1.1 | 1.4502 ± 0.0007 | 2.792 ± 0.38
313.15 K, x1 = 0.3985 | 1012.89 ± 1.1 | 1.4692 ± 0.0007 | 5.197 ± 0.65
313.15 K, x1 = 0.5105 | 1031.1 ± 1.1 | 1.4817 ± 0.0007 | 8.3 ± 1
313.15 K, x1 = 0.6035 | 1042.42 ± 1.1 | 1.4898 ± 0.0007 | 11.91 ± 1.5
313.15 K, x1 = 0.7011 | 1051.82 ± 1.1 | 1.497 ± 0.0007 | 15.87 ± 2
313.15 K, x1 = 0.8152 | 1060.49 ± 1.1 | 1.5034 ± 0.0007 | 21.92 ± 2.7
313.15 K, x1 = 0.9139 | 1066.51 ± 1.1 | 1.5082 ± 0.0007 | 29.18 ± 3.6
